Assay results published in patent publication US20250255847A1, “[…]s: Novel Drugs for Triple Negative Breast Cancer” (SIMMARON RSEARCH INC, priority 2024, published 2025).

Tests used:
[1] = system: cell cycle genes in TNBC tumors; experiment: Real-time PCR of cell cycle genes in PDX tumors; type: in vivo, mouse; conditions: tumor tissue
Procedure: (§1) FIG. 13 illustrates an embodiment of the present invention and illustrates the effects of SIM-1 and SIM-2 on the growth arrest of TNBC tumors. […] The higher magnification images were given below. (B) Area of 50 randomly selected cells (10 different images from n=5 mice/group) from three different groups were measured using polygon tool of ImageJ software and then the scatter histogram analysis was performed using GraphPad Prism 10 statistical software package. The significance of mean between groups (***p<0.001 versus control) was calculated by one-way ANOVA analysis (effector: treatment). (C) IHC staining of cell growth marker Ki-67 in vehicle-, SIM-1-, and SIM-2-treated tumors represents the cell growth property of tumor cells. […] Both hematoxylin-ir nuclei (total cells) and Ki-67-ir cells were counted in n=15 images per group, converted in percent scale, and then plotted as scatter histogram. ****p<0.0001 vs. control as derived by one-way ANOVA. (E) IHC staining of cell proliferation marker PCNA in three different groups. (F) Scatter histogram analysis of […] counted from n=15 images per group and then plotted as percent scale. […] (G) A gene array of 84 genes in a validated human breast cancer gene array (RT^2 Profiler™ PCR array; Cat #PAHS-131ZA; Qiagen) was conducted in cDNA samples extracted from TNBC tumors of vehicle, SIM-1- and SIM-2-treated (n=3) groups. The resultant gene expressions were converted in log scale and then compared with the vehicle in (G) SIM-1 and (H) SIM-2 treated groups as shown in scatter plots. […] (I) Validation of gene expressions of CCND1, CCND2, CCNE1, CDK2 genes were performed by real-time PCR analysis. (J) Upregulations of CDKN1A, and CDKN2A in SIM-1- and SIM-2-treated groups were validated by real-time PCR analyses. were Significance of mean calculated by one-way ANOVA resulted […] versus respective vehicle-groups. The results are confirmed after three different experiments.
To assess the histopathological changes in tumor parenchyma, H&E staining of tumor tissue was performed in three different groups (FIG. 13A). The hematoxylin-stained cells appeared with enlarged and densely colored nuclei characteristic of growing and mitotic tumor cells. […] The result was further corroborated with the quantitative analyses of cell size (FIG. 13B). […] To further confirm, we performed a gene array with a validated RNA array kit (Qiagen) of genes that are involved in the growth and proliferation of breast cancer cells. Relative expressions of different genes were summarized by heatmap clusterogram analyses (FIG. 14D).

TNBC tumor parenchyma = experiment: Histology, IHC and TUNEL of PDX tumor tissue; type: in vivo, mouse; conditions: for H&E staining: size and color intensities of tumor cells: 2 mg/Kg Bwt i.p.; for apoptosis in TNBC tumor (TUNEL staining): FIG. 14; for Ki-67 immunoreactivity in tumor parenchyma: p<0.0001 vs control
Procedure: as §1
(A) TUNEL staining to monitor apoptosis of tumor cells among all groups followed by (B) counting of TUNEL-ir cells from n=15 images per group and then plotting a scatter histogram analysis. ****p<0.0001 vs. control as derived by one-way ANOVA. (C) A protein array of 35 different apoptosis-related proteins (Human apoptosis array; Cat #ARY009; R&D Systems) was conducted in the tumor tissue extracts of three different groups. Red, purple, and green squares represent the expressions of Bad, Bax, and Cytochrome C proteins respectively. Black enclosures represent the positive controls. (D) Heatmap analysis summarizes the expressions of breast cancer 84 validated breast cancer-associated genes (RT^2 Profiler™ PCR array; Cat #PAHS-131ZA; Qiagen). These genes critically regulate the growth and apoptosis of breast cancer cells. The details of the genes can be found here (geneglobe.qiagen.com/us/product-groups/rt2-profiler-pcr-arravs/PAHS-131Z). Scatter plot analyses in FIG. 13G and FIG. 13H was performed to compare the relative expressions of apoptotic genes and growth suppressive genes between the vehicle- and SIM-1-treated as well as the vehicle- and SIM-2-treated groups.
Immunohistochemical (IHC) analyses. Tumor tissues were embedded in paraffin, cut at a thickness of 5 μm in Leica microtome, attached to a charged slide, dried in a dry bath at 37° C. for at least 48 hrs., and then progressed for IHC analysis. The IHC analysis was performed where, briefly, sections were deparaffinized by xylene and rehydrated by ethanol gradient (100%>70%>50%>20%; v/v) followed by complete rehydration by water. […]

SMILES: O=C(O)CCC(=O)NCc1csc2ccc(Cl)cc12 [SIM-1, 4-[(5-chloro-1-benzothiophen-3-yl)methylamino]-4-oxobutanoic acid]
- expression of CCND1, CCND2, CCNE1 and CDK2 (real-time PCR) [1]: strongly suppressed
- expression of CDKN1A and CDKN2A (real-time PCR) [1]: significantly induced
- H&E staining: size and color intensities of tumor cells (TNBC tumor parenchyma): strongly reduced the size and color intensities of cells
- apoptosis in TNBC tumor (TUNEL staining) (TNBC tumor parenchyma): weakly induced apoptosis
- Ki-67 immunoreactivity in tumor parenchyma (TNBC tumor parenchyma): strong reduction

SMILES: CCOC(=O)c1c(NC(C)=O)sc2c(Cl)c(/C=N/O)ccc12 [SIM-2, ethyl 2-acetamido-7-chloro-6-(hydroxyiminomethyl)-1-benzothiophene-3-carboxylate]
- expression of CCND1, CCND2, CCNE1 and CDK2 (real-time PCR) [1]: strongly suppressed
- expression of CDKN1A and CDKN2A (real-time PCR) [1]: significantly induced
- H&E staining: size and color intensities of tumor cells (TNBC tumor parenchyma): strongly reduced the size and color intensities of cells
- apoptosis in TNBC tumor (TUNEL staining) (TNBC tumor parenchyma): weakly induced apoptosis
- Ki-67 immunoreactivity in tumor parenchyma (TNBC tumor parenchyma): strong reduction
